Test system: PPC-1, OVCAR-3, T47D, MDA-MB-468 and DU 145 cells
Test: FLIP siRNA knock-down and CH-11 killing
Format: cell-based
Settings: PPC-1 cells transfected with FLIP siRNA
Experimental: Transfection of siRNA oligonucleotides. Double-stranded SMARTPOOL siRNA oligonucleotides targeting c-FLIP mRNA and double-stranded firefly luciferase control siRNA (Dharmacon Research, Lafayette, Colo.) (10 nM) were transfected into cells with Lipofectamine according to the manufacturer's instructions.
To test the functional importance of decreases in FLIP by 5809354, it was determined whether knocking down FLIP could recapitulate the activity of the molecule and abrogate 5809354's ability to sensitize cells to CH-11. PPC-1 cells were transfected with double stranded siRNA that targeted FLIP or luciferase as a control. At 24 hours after transfection, cells were treated with increasing concentrations of 5809354 with or without CH-11.

Q: For O=C(CCCOc1ccc(Cl)cc1Cl)NO [compound 5809354, 4-(2,4-dichlorophenoxy)-N-hydroxybutanamide], which “enhancement of CH-11-mediated killing in the presence of FLIP siRNA” value is on record?
A: the longer enhanced CH-11-mediated killing
